Test system: lymphoblasts from autistic donors with mitochondrial dysfunction (A)
Details: 500 μM copper (I) glycinate, measured by oxygen consumption rate, vs cells without the copper (I) complex, FIG. 17 panel B
Method: ATP-linked respiration, proton leak, maximal respiratory capacity, and reserve capacity were determined as measured by the cells' oxygen consumption rate.

NCC(=O)[O-].[Cu+] [copper (I) glycinate]
proton leak: significantly reduced proton leak
